Data published in patent publication US8536142B2, “Spinosyns for wound healing” (Eli Lilly and Company, priority 2004, dated 2013).
Where no end group is shown, it is not given here.

System: vascular response of rat footpad blisters (CGRP, substance P, eNOS effectors)
Assay: Blister model: effect of sensory nerve peptide antagonists and eNOS inhibitor on the vascular response to 0.5% spinosad
Format: in vivo
Experimental: Neurogenic inflammatory responses are assessed using a well-established method (Khalil & Helme, Brain Res. 527: 292-298 (1990)). Anaesthesia is induced in outbred male Sprague-Dawley rats with pentobarbitone sodium (60 mg/kg i.p). General anaesthesia is maintained by supplementary injections of 15 mg/kg. This method of anaesthesia has been shown not to alter the basal vasodilator responses in peripheral microvasculature (Khalil & Helm; Brain Res. 500: 256-262 (1989)). The left jugular vein is cannulated with polyethylene tubing for the intravenous administration of heparin/saline solution or drugs. Body temperature is maintained at 37° C. At the completion of the experiment, the animals are sacrificed by barbiturate overdose.
Blisters are induced in the middle region of the hindpaw in anaesthetised rats using vacuum pressure of −40 kPa applied for 30 minutes via a metal suction cap heated to 40° C. Once a blister is established, the epidermis (surface epithelium) is removed and a perspex chamber with inlet and outlet ports secured over the blister base. Ringer's solution is perfused over the blister surface and maintained by a peristaltic pump at 4 ml/hr to establish baseline measurements. Relative blood flow is monitored over time by a laser Doppler flowmeter via a probe placed immediately above the blister base and relative blood flux (volts) monitored continuously on a chart recorder. […]

“CGRP8-37: CGRP antagonist; Auspep (VTHRLAGLLSRSGGVVKNNFVPTNVGSKAF; ends and bridges not checked; UniProt P06881 90-119, looked up, fragment)” was tested, and the “% contribution of effector to the vascular response of spinosad” value (effector blocked by the perfused substance (eNOS, CGRP, Substance P), 0.5% spinosad) was 27% and the “Blood flow as area under the curve” value (substance perfused 10 minutes, then co-perfused with 0.5% spinosad 30 minutes (Control = 0.5% spinosad alone), L-NAME 100 μM, CGRP8-37 1 μM, spantide II 10 μM, mean ± SEM, n = 6) was 83.2 (±6.5) cm^2.
